Patent publication US11000512B2, “Use of DDX3 inhibitors as antiproliferative agents” (AZIENDA OSPEDALIERA UNIVERSITARIA SENESE, priority 2016, dated 2021)

Assays:
[1] = system: Human adenocarcinomic alveolar basal epithelial cell line (A549); experiment: Cytotoxicity test / growth inhibition, A549; type: cell-based; conditions: A549, 48 hours, cell counting
Experimental: (§1) Cells were purchased from American Type Culture Collection (ATCC, Manassas, Va., USA). The LNCaP (ATCC® CRL-1740™), A549 (ATCC® CCL-185™), MDA-MB-231 (ATCC® CRM-HTB-26™), 22Rv1 (ATCC® CRL-2505™), HCT-116 (ATCC® CCL-247™) and PC3 (ATCC® CRL-1435™) cells were maintained in Roswell Park Memorial Institute 1640 medium (RPMI; Euroclone, ECB9006L) supplemented with 10% fetal bovine serum (Euroclone; ECS0180L), 2 mM L-glutamine, 100 units/mL penicillin and […] streptomycin at 37° C. in an atmosphere of 5% CO2/air. DU145 (ATCC® HTB-81™), and DAOY (ATCC® HTB-186™) cells were maintained in Eagle's minimal essential medium (EMEM; Euro-clone, ECM0445L) supplemented with 10% fetal bovine serum (Euroclone; ECS0180L), 2 mM L-glutamine, 100 units/ml penicillin and […] streptomycin at 37° C. in an atmosphere of 5% CO2/air. SH-SY5Y (ATCC® CRL-2266™), DBRTG (ATCC® CRL-2020™), HeLa (ATCC® CCL-2™), HN6 cells (kindly provided by Dr Silvio Gutkind, UCSD Medical Center, Moores Cancer Center USA, Chen J. J et al, Oncotarget 2013, 4, 206-217)), U2OS (ATCC® HTB-96™), RD18 cells (kindly provided by Dr P. Boccuni Memorial Sloan-Kettering Cancer Center, New York, USA Vella S. et al. Clin Epigenetics. 2015 6; 7-82), cells were maintained in Dulbecco's modified Eagle's medium (DMEM; Euroclone, ECB7501L) supplemented with 10% fetal bovine serum (Euroclone; ECS0180L), 2 mM L-glutamine, 100 units/ml penicillin and 100 mg/mL streptomycin at 37° C. in an atmosphere of 5% CO2/air.
(§2) Cell lines were seeded at appropriate densities in 2 mL growth medium in 6-wells culture plates 24 hours before the treatment with the inhibitor compounds. After 24 h the culture medium was removed and fresh medium containing increasing concentrations of chemical compounds was added to cells. The fixed final concentrations were: 0.1 μM, 1 μM, 10 μM, 100 μM. DMSO was the vehicle used for dilution of the compounds and its final concentration on cells was less than 0.2%. Medium-only containing wells were included as controls. Cells were incubated 48 hours with drugs and, then, cell viability was evaluated.
(§3) Cells were detached from each well of the 6-wells plates with 300 μL of Trypsin and suspended in culture medium to a final volume of 1 mL. Cell viability was then assessed through cell counting. Cells were diluted in 1:50 ratio of an isotonic buffered diluent, Isoton (Backman Coulter), following the manufacturer's instructions, and counted using an automated cell counter (Z2 series Coulter Counter, Beckman Coulter). Each cell count was performed in three replicates. The values corresponding to the relative survival of cells in presence of each chemical compound at single concentrations were normalized to the untreated controls. Then, the half maximal inhibitory concentration (IC50) value, which represent the drug concentration that is required to induce a 50% growth inhibition in vitro, was calculated with GraphPad Prism 6.0 software using the best fitting sigmoid curve.

[2] = Parallel Artificial Membrane Permeability Assay (PAMPA), GI; type: in vitro ADME; conditions: GI (intestinal) PAMPA, value in brackets
Experimental: Parallel Artificial Membrane Permeability Assay (PAMPA). Donor solution (0.5 mM) was prepared by diluting 1 mM dimethylsulfoxide (DMSO) compound stock solution using phosphate buffer (pH 7.4, 0.025 M). Filters were coated with 5 μL of a 1% (w/v) dodecane solution of phosphatidylcholine prepared from CHCl3 solution 10% w/v, for intestinal permeability. Donor solution (150 μL) was added to each well of the filter plate. To each well of the acceptor plate were added 300 μL of solution (50% DMSO in phosphate buffer). All compounds were tested in three different plates on different days. The sandwich was incubated for 5 h at room temperature under gentle shaking. After the incubation time, the plates were separated, and samples were taken from both receiver and donor sides and analyzed using LC with UV detection at 280 nm.
LC analysis were performed with a Varian Prostar HPLC system (Varian Analytical Instruments, USA) equipped with a binary pump with a manual injection valve and model Prostar 325 UV-VIS Detector. Chromatographic separations were conducted using a Polaris C18-A column (150-4.6 mm, 5 μm particle size) at a flow rate of 0.8 mL min^−1 with a mobile phase composed of 60% ACN/40% H2O.
Permeability (Papp) for PAMPA was calculated according to the following equation, obtained from Wohnsland and Faller and Sugano et al. equation with some modification in order to obtain permeability values in cm s^−1,
where VA is the volume in the acceptor well, VD is the volume in the donor well (cm^3), A is the “effective area” of the membrane (cm^2), t is the incubation time (s) and r the ratio between drug concentration in the acceptor and equilibrium concentration of the drug in the total volume (VD+VA). Drug concentration is estimated by using the peak area integration.
Membrane retentions (%) were calculated according to the following equation: […]
where r is the ratio between drug concentration in the acceptor and equilibrium concentration, D, A, and Eq represented drug concentration in the donor, acceptor and equilibrium solution, respectively.

[3] = system: Human muscle rhabdomyosarcoma cell line (RD18); experiment: Cytotoxicity test / growth inhibition, RD18; type: cell-based; conditions: RD18, 48 hours, cell counting
Experimental: (§4) Cells were purchased from American Type Culture Collection (ATCC, Manassas, Va., USA). The LNCaP (ATCC® CRL-1740™), A549 (ATCC® CCL-185™), MDA-MB-231 (ATCC® CRM-HTB-26™), 22Rv1 (ATCC® CRL-2505™), HCT-116 (ATCC® CCL-247™) and PC3 (ATCC® CRL-1435™) cells were maintained in Roswell Park Memorial Institute 1640 medium (RPMI; Euroclone, ECB9006L) supplemented with 10% fetal bovine serum (Euroclone; ECS0180L), 2 mM L-glutamine, 100 units/mL penicillin and […] streptomycin at 37° C. in an atmosphere of 5% CO2/air. […]
(§5) Cell lines were seeded at appropriate densities in 2 mL growth medium in 6-wells culture plates 24 hours before the treatment with the inhibitor compounds. […] Cells were incubated 48 hours with drugs and, then, cell viability was evaluated.
(§6) Cells were detached from each well of the 6-wells plates with 300 μL of Trypsin and suspended in culture medium to a final volume of 1 mL. Cell viability was then assessed through cell counting. Cells were diluted in 1:50 ratio of an isotonic buffered diluent, Isoton (Backman Coulter), following the manufacturer's instructions, and counted using an automated cell counter (Z2 series Coulter Counter, Beckman Coulter). […]

[4] = system: Human colorectal carcinoma cell line (HCT116); experiment: Cytotoxicity test / growth inhibition, HCT116; type: cell-based; conditions: HCT-116, HCT116, 48 hours, cell counting
Experimental: as §1, with “2015 6; 7-82), cells were maintained in Dulbecco's modified Eagle's medium (DMEM; Euroclone, ECB7501L) supplemented with 10% fetal bovine serum (Euroclone; ECS0180L), 2 mM L-glutamine, 100 units/ml penicillin and 100 mg/mL streptomycin at 37° C. in an atmosphere of 5% CO2/air.” left out
as §5, §6

[5] = system: Human cervical carcinoma cell line (HeLa); experiment: Cytotoxicity test / growth inhibition, HeLa; type: cell-based; conditions: 48 hours, cell counting
Experimental: as §1, with “2015 6; 7-82), cells were maintained in Dulbecco's modified Eagle's medium (DMEM; Euroclone, ECB7501L) supplemented with 10% fetal bovine serum (Euroclone; ECS0180L), 2 mM L-glutamine, 100 units/ml penicillin and 100 mg/mL streptomycin at 37° C. in an atmosphere of 5% CO2/air.” left out
as §5, §6

[6] = system: Human Prostate cell line derived from brain metastasis (DU-145); experiment: Cytotoxicity test / growth inhibition, DU-145; type: cell-based; conditions: DU-145, 48 hours, cell counting
Experimental: as §1, §2
as §6, with “Coulter). Each cell count was performed in three replicates. The values corresponding to the relative survival of cells in presence of each chemical compound at single concentrations were normalized to the untreated controls.” for “Coulter).”

[7] = system: Human head and neck squamous carcinoma cell line (HN6); experiment: Cytotoxicity test / growth inhibition, HN6; type: cell-based; conditions: HN6, 48 hours, cell counting
Experimental: as §1, §2, §3

[8] = system: Human medulloblastoma cell line (DAOY); experiment: Cytotoxicity test / growth inhibition, DAOY; type: cell-based; conditions: 48 hours, cell counting
Experimental: as §4, §5, §6

[9] = system: Human Prostate cancer cell line (PC3); experiment: Cytotoxicity test / growth inhibition, PC3; type: cell-based; conditions: PC3, 48 hours, cell counting
Experimental: as §1, with “2015 6; 7-82), cells were maintained in Dulbecco's modified Eagle's medium (DMEM; Euroclone, ECB7501L) supplemented with 10% fetal bovine serum (Euroclone; ECS0180L), 2 mM L-glutamine, 100 units/ml penicillin and 100 mg/mL streptomycin at 37° C. in an atmosphere of 5% CO2/air.” left out
as §5, §6

[10] = system: Human osteosarcoma cell line (U2OS); experiment: Cytotoxicity test / growth inhibition, U2OS; type: cell-based; conditions: 48 hours, cell counting
Experimental: as §1, §2, §3

[11] = system: Human breast adenocarcinoma cell line (MDA-MB-231); experiment: Cytotoxicity test / growth inhibition, MDA-MB-231; type: cell-based; conditions: MDA-MB-231, 48 hours, cell counting
Experimental: as §1, §2, §3

[12] = system: Human brain glioblastoma cell line (DBTRG); experiment: Cytotoxicity test / growth inhibition, DBTRG; type: cell-based; conditions: 48 hours, cell counting
Experimental: as §4, §5, §6

[13] = system: Human Prostate Adenocarcinoma cell line (LNCaP); experiment: Cytotoxicity test / growth inhibition, LNCaP; type: cell-based; conditions: 48 hours, cell counting
Experimental: as §4, §5, §6

[14] = system: Human Glioblastoma cell line (U87); experiment: Cytotoxicity test / growth inhibition, U87; type: cell-based; conditions: U87, 48 hours, cell counting
Experimental: as §2
as §6, with “Coulter). Each cell count was performed in three replicates. The values corresponding to the relative survival of cells in presence of each chemical compound at single concentrations were normalized to the untreated controls.” for “Coulter).”

[15] = system: Human Prostate carcinoma epithelial cell line (22Rv1); experiment: Cytotoxicity test / growth inhibition, 22Rv1; type: cell-based; conditions: 22Rv1, 48 hours, cell counting
Experimental: as §4, §5, §6

[16] = system: Human Neuroblastoma cell line (SH-SY5Y); experiment: Cytotoxicity test / growth inhibition, SH-SY5Y; type: cell-based; conditions: 48 hours, cell counting
Experimental: as §4, §5, §6

[17] = Microsomal Stability Assay (HLM); type: in vitro ADME; conditions: human liver microsomes, 37° C., 60 min, NADPH-generating system; percentage of not metabolized compound
From the text: For the quantification was used an LC-MS system consisted of a Varian apparatus (Varian Inc) including a vacuum solvent degassing unit, two pumps (212-LC), a Triple Quadrupole MSD (Mod. 320-LC) mass spectrometer with ES interface and Varian MS Workstation System Control Vers. 6.9 software. Chromatographic separation was obtained using a Pursuit C18 column (50×2.0 mm) (Varian) with 3 μm particle size and gradient elution: eluent A being ACN and eluent B consisting of water. […] The flow rate was 0.2 mL min^−1 and injection volume was 5 μL. The instrument operated in positive mode and parameters were: detector 1850 V, drying gas pressure 25.0 psi, desolvation temperature 300.0° C., nebulizing gas 40.0 psi, needle 5000 V and shield 600 V. Nitrogen was used as nebulizer gas and drying gas. Collision induced dissociation was performed using Argon as the collision gas at a pressure of 1.8 mTorr in the collision cell. Microsomal Stability Assay. […] The reaction was stopped by cooling on ice and adding 1.0 mL of acetonitrile. The reaction mixtures were then centrifuged, and the parent drug and metabolites were subsequently determined by LC-UV-MS. Chromatographic analysis was performed with an Agilent 1100 LC/MSD VL system (G1946C) (Agilent Technologies, Palo Alto, Calif.) constituted by a vacuum solvent degassing unit, a binary high-pressure gradient pump, an 1100 series UV detector, and an 1100 MSD model VL benchtop mass spectrometer.
Chromatographic separation was obtained using a Varian Polaris C18-A column (150-4.6 mm, 5 μm particle size) and gradient elution: eluent A being ACN and eluent B consisting of water. […] The flow rate was 0.8 mL min^−1 and injection volume was 20 μL.
The Agilent 1100 series mass spectra detection (MSD) single-quadrupole instrument was equipped with the orthogonal spray API-ES (Agilent Technologies, Palo Alto, Calif.). Nitrogen was used as nebulizing and drying gas. The pressure of the nebulizing gas, the flow of the drying gas, the capillary voltage, the fragmentor voltage, and the vaporization temperature were set at 40 psi, 9 L/min, 3000 V, 70 V, and 350° C., respectively. UV detection was monitored at 280 nm. The LC-ESI-MS determination was performed by operating the MSD in the positive ion mode. Spectra were acquired over the scan range m/z 100-1500 using a step size of 0.1 u. The percentage of not metabolized compound was calculated by comparison with reference solutions.

Row | Structure (SMILES) | IC50 [1] | PAMPA GI (RM %) membrane retention [2] | IC50 [3] | IC50 [4] | IC50 [5] | IC50 [6] | IC50 [7] | IC50 [8] | IC50 [9] | IC50 [10] | IC50 [11] | IC50 [12] | IC50 [13] | IC50 [14] | IC50 [15] | IC50 [16] | Sability % [17]
1 | CCCCc1cn(-c2ccc(NC(=O)Nc3ccccc3C(F)(F)F)cc2)nn1 [Compound 22a, 1-(4-(4-butyl-1H-1,2,3-triazol-1-yl)phenyl)-3-(2-(trifluoromethyl)phenyl)urea] | 1.4 µM | 23.9% | 3.2 µM | 3.9 µM | 6.29 µM | 0.1 µM | 0.8 µM | 3.3 µM | 25.6 µM | 4.2 µM | 1.4 µM | 5.8 µM |  |  |  |  | 
2 | CCCCc1cn(-c2cccc(S(=O)(=O)Nc3ccccc3C(F)(F)F)c2)nn1 [Compound 64d, 3-(4-butyl-1H-1,2,3-triazol-1-yl)-N-(2-(trifluoromethyl)phenyl)benzenesulfonamide] | 21.3 µM |  |  |  | 51.7 µM | 3 µM |  |  |  |  | 15.7 µM |  | 16.7 µM | 87 µM | 14 µM | 18.8 µM | 99%
